Assay results: patent publication US20040180104A1, “Herbal composition for preventing and/or treating conditions in associated with depression” (priority 2003, published 2004)

Test system: duration of immobility (despair) in rodents
Test: Forced Swimming Test (FST)
Type: in vivo
Details: male BALB mice, imipramine
Experimental: Rodents are placed individually into an transparent acrylic cuboid containing 15 cm (for the mice) or 30 cm (for the rats) of water at 24+1° C. for 6 minutes. The durations of struggling, active movement and immobility in the test is recorded by an automatic device. A 15 minutes pre-test was performed 20-24 hours prior to the test. The duration of immobility is used as a parameter of despair in the rodents.
160-250 g of male Wistar rats were purchased from NSC (National Science Council, Taipei Taiwan). The animals were placed at constant ambient temperature (25±1° C.) with food and water available and on a 12:12-h LD cycle (lights on at 06:00, off at 18:00.)
The FST test as mentioned herein was performed.

SMILES: CN(C)CCCN1c2ccccc2CCc2ccccc21 [Imipramine]
- duration of immobility (in words): reduction in the duration of immobility
